Consider 14 compounds from patent publication US20010000513A1, “Biphenyl butyric acids and their derivatives as inhibitors of matrix metalloproteinases” (priority 1996, published 2001).

Series [1] has as its system Male Swiss-Webster mice, 0.6% acetic acid i.p. Nature of the series: Acetic Acid-Induced Hyperalgesia Model, writhing. The format is in vivo. Particulars: for % Inhibition (writhing): 1 hour before acetic acid. How it is done:
Treatment groups (n=8) were divided so that 2 animals were placed into each of four 4″×4″×4″ adjacent plexiglass containers. Seven minutes after acid, writhing motions (abdominal contractions, concave arching of the back, and/or hindleg stretching) were tallied for 5 minutes. The ID40 value was calculated by linear regression analysis.
On the technique in general: An intraperitoneal irritant provokes the stretching counted in writhing tests.

Series [2] has as its system Female Lewis rats sensitized to streptococcal cell walls. Nature of the series: Streptococcal Cell Wall Model (SCW), paw swelling. It is filed as in vivo. Particulars: rat SCW flare. How it is done: Female Lewis rats (125-150 g) are sensitized to the 100 P preparation of streptococcal cell walls (obtained from Lee Labs, Greyson, Ga.) with an intra-articular injection of 10 μL SCW containing 6 μg of the cell wall particles into one of the ankle joints. The contralateral ankle joint is injected with an equal volume of saline. Twenty-one days later, animals are placed in treatment groups (7 per group) according to their immediate response to the intra-articular injection of SCW (to obtain groups with equivalent responses). A control group is injected with saline. Each animal is then lightly anesthetized with ether, the paw volumes of each hind paw are determined by mercury plethysmography, and the animals are injected IV via the tail vein with a 0.25-mL dose of SCW containing 100 μg of the 100 P cell wall particles. Each group of rats receives an oral dose of compound for 7 days in an appropriate dosing vehicle beginning on Day 21. Paw swelling is determined by subtracting the paw volume of the saline injected ankle from the SCW sensitized ankle. Percent inhibition is calculated by comparing the compound treatment group with the control group. A one-way analysis of variance with a Dunnett's test for multiple comparisons is used for determination of statistical power. Rats were sensitized 21 days prior to initiating the flare response by systemic SCW. […] Paw volume was measured 24 hours after the first administration. Numbers represent the mean percent inhibition of swelling from 10 animals/treatment group.

Series [3] deals with mice sensitized with a fragment of mouse myelin basic protein to induce EAE. As to the kind of experiment: Experimental Autoimmune Encephalomyelitis (EAE). The format is in vivo. How it is done:
Compounds were administered by oral route to mice sensitized with a fragment of mouse myelin basic protein to induce EAE. Mice were dosed daily for 21 days beginning 4 hours before sensitization on day one. EAE responses of compound treated groups were compared to those of a control group of mice sensitized identically and a sham-sensitized group treated with vehicle. The values reported in Table 2 include responses during compound treatment only.
Sensitization Female mice [PL/J(FI)×SJL/J, Jackson Labs], 11 weeks old, were sensitized s.c. (0.05 cc×2) at the base of the tail with an emulsion containing equal parts of mouse myelin basic protein (MBP) fragment (amino acids 1-9 of the N-terminus of MBP) in saline and Difco Complete Freund's Adjuvant (CFA) fortified with heat killed desiccated Mycobacteria tuberculosis (MT). Each mouse received 300 μg of MBP fragment (230 μg free base) and 200 μg MT followed by retrobulbar (IV) injection of 200 ng of B. pertussis toxin in 0.2 cc of saline. Two days later mice receive a second injection of B. pertussis toxin.
Neurological Assessment Animals were weighed and evaluated for symptoms of EAE before and frequently after sensitization. EAE score: (0.5=slight limp tail, 1=limp tail or slow to right, 1.5=slight limp tail and slow to right, 2=paresis/mild paralysis or incontinence, 2.5=mild paralysis and slow to right or complete paralysis (one hind limb), 3=hind limb paralysis (both), 3.5=hind limb paralysis (both) and limp torso; 4=additional fore limb paralysis, 4.5=head movement only, 5=moribund, death after previous EAE symptoms). Evaluators were blinded as to compound treatments and previous behavioral scores.
Disease symptoms are compared among groups for EAE severity, incidence, time to onset, cumulative score, and deaths. Peak EAE score: the mean of the highest score for each mouse in a group, independent of duration of symptoms; EAE incidence: the mean number of mice showing symptoms of EAE, defined as having EAE scores on any 3 consecutive days that total “≧3.0”. EAE deaths: an animal that died must have presented previous evidence of an EAE score greater than 0.5; EAE onset: the first of a 3-day series scoring a total of ≧3.0.
A Cumulative EAE score is calculated for each animal. A mean of all animals' cumulative scores is then determined for each day.
Experimental groups were assumed to be similar and were compared for statistical significance by a 2-tailed T-Test (p≦0.05).
Compound was homogenized manually with an aliquot of warm vehicle (1.0% hydroxypropyl-methylcellulose [Sigma] in water) in glass mortar tubes and homogenizing pestle. The smooth compound paste was gradually suspended in vehicle. Mice were dosed with compound and/or vehicle, 10 mL/kg in groups of ten. A sham-sensitized group was similarly dosed with vehicle.

Series [4] deals with male Wistar rats, polyarthritis induced by Mycobacterium butyricum. Nature of the series: Adjuvant Arthritis Model, hind paw edema. To be noted: P <0.001. It is filed as in vivo. The protocol: Polyarthritis was induced by a modified method of the procedure developed by Chang, et al., Arthritis and Rheum., 1980;23:62. Briefly, male Wistar rats (100-115 g each) received subcutaneous injection of 0.1 mL of 10 mg/mL (or 1 mg) Mycobacterium butyricum suspended in paraffin oil in the distal third of the tail, using a glass tuberculin syringe and 25 gauge needle. M. Butyricum suspension was achieved by sonication in paraffin oil for 10 minutes with the vessel immersed in ice bath. Rates were randomized after injection and placed in cages. […] The rest were randomized and separated into dosing (test) groups (N=10 per group) and control (vehicle) group (N=20). The hind paws volume and the weights of each animal in each group was recorded and served as the initial values for the study. Hind paw swelling was assessed using mercury plethysmography beginning on Day 12 and every other day till Day 22 (final assessment).
The dose volume was 10 mL/kg PO. Animals were dosed twice daily for 10 days starting on Day 12. Also, hind paw volumes were measured on Days 12, 14, 16, 18, 20, and 22 as stated above. The results are reported as % inhibition of delta edema on Day 22. Delta edema is the difference in footpad edema between the day in which animals are assessed and that on Day 12 of the study. The percent inhibition is based on a comparison of the treatment groups to the vehicle group.

In the case of `CSc1ccc(-c2ccc(C(CCC(=O)O)=NO)cc2)cc1` [Example 17, 4-Hydroxyimino-4-(4′-methylsulfanyl-biphenyl-4-yl)-butyric acid], the melting point was in the range of 162 to 164 °C.
Same read-out and setting: for `COc1ccc(-c2ccc(C(CCC(=O)O)=NO)cc2)cc1` [Example 13, 4-Hydroxyimino-4-(4′-methoxy-biphenyl-4-yl)-butyric acid] the value was 157 to 160 °C; for `O=C(O)CCC(=NO)c1ccc(-c2ccc(C(F)(F)F)cc2)cc1` [Example 16, 4-Hydroxyimino-4-(4′-trifluoromethyl-biphenyl-4-yl)-butyric acid], 134 to 136 °C.
Same read-out and setting: for `O=C(O)CCC(=NO)c1ccc(-c2ccccc2F)cc1` [Example 11, 4-(2′-Fluoro-biphenyl-4-yl)-4-hydroxyimino-butyric acid] the value was 150 to 151.5 °C.
On the same count and under the same terms, for `Cc1ccc(-c2ccc(C(CCC(=O)O)=NO)cc2)cc1` [Example 12, 4-Hydroxyimino-4-(4′-methyl-biphenyl-4-yl)-butyric acid] the value was 176.5 to 177.5 °C.
Regarding `O=C(O)CCC(=NO)c1ccc(-c2cccc(F)c2)cc1` [Example 15, 4-(3′-Fluoro-biphenyl-4-yl)-4-hydroxyimino-butyric acid], the melting point was in the range of 155 to 157 °C.
Still for that read-out and setting: the result for `N#Cc1ccc(-c2ccc(C(CCC(=O)O)=NO)cc2)cc1` [Example 14, 4-(4′-Cyano-biphenyl-4-yl)-4-hydroxyimino-butyric acid] reads 157 to 159 °C; that for `O=C1CCC(c2ccc(-c3ccc(Cl)cc3)cc2)=NO1` [Example 18, 3-(4′-Chloro-biphenyl-4-yl)-4,5-dihydro-6-oxo-6H-1,2-oxazine], 190 to 192 °C.
Same read-out and setting: for `CON=C(CCC(=O)O)c1ccc(-c2ccc(Cl)cc2)cc1` [Example 9, 4-(4′-Chloro-biphenyl-4-yl)-4-methoxyimino-butyric acid] the value was 183 to 186 °C; for `CN(C)N=C(CCC(=O)O)c1ccc(-c2ccc(Cl)cc2)cc1` [Example 3, 4-(4′-Chloro-biphenyl-4-yl)-4-(dimethylhydrazono)-butyric acid], 158 to 160 °C.
Take `O=C(O)CCC(=NO)c1ccc(-c2ccc(Cl)cc2)cc1` [Example 1, 4-(4′-Chloro-biphenyl−4-yl)-4-hydroxyimino-butyric acid]: the “% Inhibition (writhing)” value was 7% in series [1] (0.03 mg/kg oral); 26% in series [1] (0.1 mg/kg oral); 37% in series [1] (0.3 mg/kg oral); 41% in series [1] (1 mg/kg oral); 65% in series [1] (10 mg/kg oral). Besides, in series [1] (oral, calculated by linear regression analysis), the ID40 is listed as 0.65 mg/kg. The “% Inhibition at Day 4 (paw swelling)” value in series [2] (3 mg/kg bid oral) was 71%; in series [2] (10 mg/kg bid oral) it was 86%; in series [2] (30 mg/kg bid oral), 86%. Moreover, the “effect on EAE cumulative score” value in series [3] (50 mg/kg oral) is reported as “reduced the EAE cumulative score”. Further, the “EAE Onset” value in series [3] (50 mg/kg oral daily for 21 days, control 12.2 ± 0.9, p ≦0.05 vs control) turned out to be 16.2 ± 1.0 days. Also, the “EAE Cumulative Score” value in series [3] (50 mg/kg oral daily for 21 days, control 31.6 ± 1.7, p ≦0.05 vs control) amounted to 17.9 ± 2.8. Besides, in series [3] (50 mg/kg oral daily for 21 days, during compound treatment, control 2/10), the “EAE Deaths” value is listed as 0/10. For the same compound, the “EAE Incidence” value in series [3] (50 mg/kg oral daily for 21 days, mice with EAE/group, control 10/10) is 9/10. Besides, the “Peak EAE Score” value in series [3] (50 mg/kg oral daily for 21 days, responses during compound treatment only, control 4.2 ± 0.1) is listed as 3.8 ± 0.3. Further, the “EAE-induced deaths to Day 43” value in series [3] (50 mg/kg oral, to Day 43) is on record as “no EAE-induced deaths”. Moreover, the “delay of the onset of EAE” value in series [3] (dosed at 50 mg/kg oral) was 4 days. Besides, the “% Inhibition of delta edema on Day 22” value in series [4] (3.0 mg/kg bid PO for 10 days from Day 12) is recorded as 68.1%; in series [4] (10.0 mg/kg bid PO for 10 days from Day 12) it was 84.4%; in series [4] (30.0 mg/kg bid PO for 10 days from Day 12) it was 99.9%.
In turn, `O=C(O)CCC(=NO)c1ccc(-c2ccc(Br)cc2)cc1` [Example 2, 4-(4′-Bromo-biphenyl-4-yl)-4-hydroxyimino-butyric acid] registered a melting point of 175 to 176 °C.
Regarding `O=C(O)CCC(=NO)c1ccc(-c2ccc(Cl)cc2F)cc1` [Example 10, 4-(4′-Chloro-2′-fluoro-biphenyl-4-yl)-4-hydroxyimino-butyric acid], the melting point lay in the range of 147.5 to 149.5 °C.
Still for that read-out and setting: for `CON=C(CCC(=O)[O-])c1ccc(-c2ccc(Cl)cc2)cc1.[Na+]` [Example 8, 4-(4′-Chloro-biphenyl-4-yl)-4-methoxyimino-butyric acid, sodium salt] the value was 234 to 238 °C.

As usually defined, the melting point is the temperature, or range, at which the solid turns liquid. A word on the % Inhibition: it is the relative decrease from the control value, in per cent.
